Key:
[1] = Dissociation constant (Kd) for the equilibrium binding to the monoclonal antibodies DB19/25 which were raised in mice was determined; set-up: species or system Mus musculus
[2] = Dissociation constant (Kd) for the equilibrium binding to the monoclonal antibodies DB19/1 which were raised in mice was determined; set-up: species or system Mus musculus

Row | Kd [1] [nM] | Kd [2] [nM] | Compound
1 | 18 | 180 | CC(=O)N[C@@H](Cc1ccc(O)cc1)C(=O)N1CCC[C@H]1C(=O)N[C@@H](Cc1ccc(O)cc1)C(=O)N[C@@H](CC(=O)O)C(=O)N[C@@H](C(=O)N1CCC[C@@H]1C(=O)N[C@H](CC(=O)O)C(=O)N[C@H](Cc1ccc(O)cc1)C(=O)N[C@H](C)C(=O)O)C(C)C
2 | 38 | 88 | CC(=O)N[C@@H](Cc1ccc(O)cc1)C(=O)N1CCC[C@H]1C(=O)N[C@@H](Cc1ccc(O)cc1)C(=O)N[C@@H](CC(=O)O)C(=O)N[C@@H](C(=O)N(C)[C@@H](C)C(=O)N[C@H](CC(=O)O)C(=O)N[C@H](Cc1ccc(O)cc1)C(=O)N[C@H](C)C(=O)O)C(C)C
3 | 600 | 4200 | CC(=O)N[C@@H](Cc1ccc(O)cc1)C(=O)N(C)[C@@H](C)C(=O)N[C@@H](Cc1ccc(O)cc1)C(=O)N[C@@H](CC(=O)O)C(=O)N[C@@H](C(=O)N1CCC[C@@H]1C(=O)N[C@H](CC(=O)O)C(=O)N[C@H](Cc1ccc(O)cc1)C(=O)N[C@H](C)C(=O)O)C(C)C
4 | 5.7 | 3.6 | CC(=O)N[C@@H](Cc1ccc(O)cc1)C(=O)N1CCC[C@@]1(C)C(=O)N[C@@H](Cc1ccc(O)cc1)C(=O)N[C@@H](CC(=O)O)C(=O)N[C@@H](C(=O)N1CCC[C@@H]1C(=O)N[C@H](CC(=O)O)C(=O)N[C@H](Cc1ccc(O)cc1)C(=O)N[C@H](C)C(=O)O)C(C)C

Reference: ChEMBL document CHEMBL1125905, “Synthesis, conformational properties, and antibody recognition of peptides containing beta-turn mimetics based on alpha-alkylproline derivatives” (J Med Chem, 1991)
